Consider four molecules from article PMC10301922, “Anti-Oxidant, Anti-Mutagenic Activity and Safety Evaluation of Antrocin” (Toxics, 2023).

Series [1] has as its system Salmonella typhimurium TA1535. The series can be described thus: Ames test (plate incorporation), TA1535. Particulars: TA1535, with S9, positive reagent 5 μg/plate.
Series [2] concerns Salmonella typhimurium TA102. The series can be described thus: Ames test (plate incorporation), TA102. Particulars: TA102, with S9, positive reagent 5 μg/plate.
Series [3] has as its system Salmonella typhimurium TA100.
Series [4] concerns Salmonella typhimurium TA1535. The series can be described thus: Antimutagenicity test, TA1535.
In series [5] the test system is Salmonella typhimurium TA1537. The series can be described thus: Ames test (plate incorporation), TA1537. Particulars: TA1537, with S9, positive reagent 5 μg/plate.
Series [6] deals with Salmonella typhimurium TA98. As to the kind of experiment: Ames test (plate incorporation), TA98. As to conditions: TA98, with S9, positive reagent 5 μg/plate.
Series [7] concerns Salmonella typhimurium TA98.
In a further series the test system is CHO-K1 cells. As to conditions: with S9 (3 h), 25 μg/mL, positive control. As for the experimental part:
A chromosomal aberration test was performed to evaluate the potential for antrocin to induce structural chromosomal abnormalities in Chinese hamster ovary cells (CHO-K1 cells). The test followed the protocol in Genetic Toxicology Testing: A Laboratory Manual. CHO-K1 cells were obtained from the Bioresource Collection and Research Center (BCRC), and were cultured in Ham F-12 medium with 10% fetal bovine serum and 0.1% Penicillin–Streptomycin at 5% CO2 in a 37 °C incubator. […] Three experimental conditions were conducted: 3 h with and without S9 (short term), and 19 h without S9 (long term). […] CHO-K1 cells were cultured in 25T flasks, incubated with samples for 3 or 19 h with and without S9, and harvested at the time of 1.5 cell cycle lengths (about 21 h). Two hours before harvesting, 100 μL colcemid (10 μg/mL) was added to disrupt cell mitosis. Collected cells were then treated with 0.6% KCl solution and fixed with acetic acid–methanol (1:3) solution. After fixation, cells were stained with Diff-Quik on a glass slide. A total of 300 cells in metaphase per group were observed, and the number of chromosomal aberrations was recorded. The chromosomal aberration rate (%) was calculated using the following formula: (number of cells with aberrations/total number of cells examined) × 100. A Student’s t-test was used for statistical analysis, and a significant increase (p < 0.05) compared to the negative control indicated a positive response.

A further series has as its system ICR male mice. As to the kind of experiment: In vivo mammalian erythrocyte micronucleus test. As to conditions: for Mn-RETs/1000RETs (‰) / RETs/1000RBCs (‰): 60 mg/kg bw ip; for frequencies of micronuclei: positive control group (60 mg/kg ip).
For series [8], the system named is Sprague Dawley rats. Particulars: rat, in vivo, po, 7.5 mg/kg.
The test system of series [9] is Sprague Dawley rats. Particulars: rat, in vivo, po, 7.5 mg/kg. The source holds these as a separate data set.
Series [10] deals with Sprague Dawley rats. As to conditions: rat, in vivo, po, 7.5 mg/kg. The source holds these as a separate data set.
In another series the test system is Wistar rats. Set-up: method as in earlier work. As to conditions: 28-day oral; cited from earlier work.
Series [11] concerns Sprague Dawley rats. As to conditions: rat, in vivo, 7.5 mg/kg.
The mark [12] stands for this setting: female, Sprague Dawley, po, 28 days.
Setting [13] is: male, Sprague Dawley, po, 28 days.

SMILES strings stand for the structures. Where two headings read alike, the source gives them in different places.

As to `Nc1ccc2cc3ccccc3cc2c1` [2-AA, 2-aminoanthracene, reference compound], the “Number of Revertant” value in series [1] stood at 535.0 ± 138.6 Colony/Plate; in series [2] it was 1532.0 ± 204.2 Colony/Plate; in [3] (TA100, with S9, positive reagent 5 μg/plate), 2099.7 ± 145.5 Colony/Plate; in series [4] (TA1535, with S9, positive reagent alone 25 μg/plate), 270.3 ± 7.5 Colony/Plate; in series [5], 269.0 ± 21.9 Colony/Plate; in series [6], 1881.3 ± 434.2 Colony/Plate. Moreover, in series [7] (TA98, with S9, positive reagent alone 25 μg/plate), the “Number of Revertant” value turned out to be 6055.0 ± 661.0 Colony/Plate. Further, the “reverse mutants, times more than the negative control group” value is “about 23 times” in series [4] (TA1535, with S9, 25 μg/plate) and “about 275 times” in series [7] (TA98, with S9, 25 μg/plate).
For the molecule `O=P1(N(CCCl)CCCl)NCCCO1` (stereo not drawn) [Cyclophosphamide, cyclophosphamide, reference compound], in the series with CHO-K1 cells, the “Frequency of Chromosomal Aberration (%)” value was 15.3 ± 2.3% and the “Total Aberrations” value is on record as 46/300. In the series on ICR male mice (48 h), the “Mn-RETs/1000RETs (‰)” value is 22.9 ± 12.2 ‰, the “RETs/1000RBCs (‰)” value is reported as 3.6 ± 2.1 ‰ and the frequencies of micronuclei was 3.6 ± 2.1 ‰. In addition, in the series with ICR male mice (72 h), the “Mn-RETs/1000RETs (‰)” value is recorded as 6.8 ± 3.7 ‰, the “RETs/1000RBCs (‰)” value is 3.9 ± 2.1 ‰ and the frequencies of micronuclei is 3.9 ± 2.1 ‰.
`CNC(=O)c1cc(Oc2ccc(NC(=O)Nc3ccc(Cl)c(C(F)(F)F)c3)cc2)ccn1` [Sorafenib, sorafenib] gave a BASO with Sprague Dawley rats [8] of 0.1 ± 0.1%. In addition, in the series on Sprague Dawley rats [9], the GGT is on record as below 1 U/L and the TB was below 0.1 mg/dL. Further, in the series on Sprague Dawley rats [10], the “Brain” value turned out to be 2.0 ± 0.1 g. In addition, the “dose above which abnormality was found (clinical observation, hematology, biochemistry, histopathology)” value with Wistar rats is “above 25 mg/kg”. Also, in the series on Sprague Dawley rats [11] (setting [12]), the “Adrenal gland: Congestion, cortex, focal, slight; incidence” value is on record as 1/5; the “Bone, femur: Hypertrophy, epiphysis, diffuse, slight to moderate/severe; incidence” value is given as 5/5; the “Kidney: Cast, tubule, focal, slight; incidence” value is recorded as 1/5; the “Kidney: Infarct, tubule, focal, slight; incidence” value was 1/5. Also, the “Ovary: Increase, follicle, multifocal, moderate to moderate/severe; incidence” value with Sprague Dawley rats [11] (setting [12]) was 4/4. Besides, in the series with Sprague Dawley rats [11] (setting [13]), the “Adrenal gland: Congestion, cortex, multifocal, slight; incidence” value was 1/5; the “Bone marrow, femur: Hypocellularity, diffuse, slight to moderate/severe; incidence” value is 3/5; the “Bone marrow, sternum: Hypocellularity, diffuse, moderate; incidence” value was 3/5; the “Bone, femur: Hypertrophy, epiphysis, diffuse, slight to moderate/severe; incidence” value is 5/5. For the same molecule, in the series on Sprague Dawley rats [11] (setting [13]), the “Epididymis: Granuloma, spermatic, focal, moderate; incidence” value is 1/5; the “Heart: Infiltration, mononuclear cell, focal, minimal to slight; incidence” value was 1/5; the “Kidney: Cast, tubule, focal, minimal; incidence” value was 3/5; the “Spleen: Atrophy, red pulp, diffuse, slight to moderate; incidence” value is reported as 5/5. Moreover, the “Salivary gland, Sublingual lobe: histopathological lesions” value in the series on Sprague Dawley rats [11] was “-”. Also, in the series on Sprague Dawley rats [11] (po), the “Aorta: histopathological lesions” value is “-”, the “Cervix: histopathological lesions” value was “-”, the “Coagulative gland: histopathological lesions” value was “-” and the “Esophagus: histopathological lesions” value is listed as “-”. Also, in the series on Sprague Dawley rats [11] (po), the “Eyes: histopathological lesions” value was “-”; the “Harderian gland: Infiltration, mononuclear cell, focal, minimal; incidence” value is “-”; the “Harderian gland: histopathological lesions” value was “-”; the “Heart: histopathological lesions” value is “-”. Besides, in the series with Sprague Dawley rats [11] (po), the “Intestine, large, Caecum: histopathological lesions” value is on record as “-”; the “Intestine, large, Colon: histopathological lesions” value was “-”; the “Intestine, large, Rectum: histopathological lesions” value is reported as “-”; the “Intestine, small, Duodenum: histopathological lesions” value is listed as “-”. In the series with Sprague Dawley rats [11] (po), the “Intestine, small, Ileum: histopathological lesions” value is recorded as “-”; the “Intestine, small, Jejunum: histopathological lesions” value is given as “-”; the “Kidney: Cyst, tubule, focal, slight; incidence” value is “-”; the “Liver: Fatty change, multifocal, slight; incidence” value was “-”. Besides, in the series on Sprague Dawley rats [11] (po), the “Liver: histopathological lesions” value is given as “-”; the “Lung: histopathological lesions” value is “-”; the “Lymph node, Cervical: histopathological lesions” value is given as “-”; the “Lymph node, Mesenteric: histopathological lesions” value is “-”. Besides, in the series with Sprague Dawley rats [11] (po), the “Lymph node: histopathological lesions” value was “-”, the “Mammary gland: histopathological lesions” value is reported as “-”, the “Optic nerve: histopathological lesions” value is recorded as “-” and the “Oviduct: histopathological lesions” value is “-”. In addition, in the series with Sprague Dawley rats [11] (po), the “Pancreas: histopathological lesions” value is reported as “-”; the “Parathyroid gland: histopathological lesions” value is listed as “-”; the “Pituitary: histopathological lesions” value is “-”; the “Prostate gland: Infiltration, mononuclear cell, focal, minimal to slight; incidence” value was “-”. In the series on Sprague Dawley rats [11] (po), the “Salivary gland, Mandibular lobe: histopathological lesions” value is given as “-”; the “Salivary gland: histopathological lesions” value is “-”; the “Sciatic nerve: histopathological lesions” value is on record as “-”; the “Seminal vesicle: histopathological lesions” value was “-”. Further, in the series on Sprague Dawley rats [11] (po), the “Skeletal muscle: histopathological lesions” value is recorded as “-”, the “Skin: histopathological lesions” value is given as “-”, the “Spinal cord: histopathological lesions” value is “-” and the “Spleen: histopathological lesions” value was “-”. In the series on Sprague Dawley rats [11] (po), the “Stomach: histopathological lesions” value is given as “-”, the “Testis: histopathological lesions” value is given as “-”, the “Thymus: histopathological lesions” value was “-” and the “Thyroid gland: histopathological lesions” value is “-”. In the series with Sprague Dawley rats [11] (po), the “Tongue: histopathological lesions” value is “-”, the “Trachea: histopathological lesions” value is on record as “-”, the “Urinary bladder: histopathological lesions” value was “-” and the “Uterus: histopathological lesions” value is recorded as “-”. The “Vagina: histopathological lesions” value with Sprague Dawley rats [11] (po) is “-”.
`[N-]=[N+]=[N-].[Na+]` [sodium azide, reference compound]: the “Number of Revertant” value amounted to 2223.0 ± 53.2 Colony/Plate in series [3] (TA100, without S9, positive reagent 5 μg/plate) and 1313.0 ± 42.0 Colony/Plate in series [4] (TA1535, without S9, positive reagent alone 5 μg/plate). In addition, the “reverse mutants, times more than the negative control group” value in series [4] (TA1535, without S9, 5 μg/plate) was “about 122 times”.
